SMILES strings stand for the structures.

The text below walks through data of patent US8946198B2, “Estrogen replacement regimen” (priority 2002, dated 2015).

For assay [1], the target named is T1, human sex-hormone-binding globulin (SHBG) (Homo sapiens, UniProt P04278).
T1 sequence (P04278 30-402): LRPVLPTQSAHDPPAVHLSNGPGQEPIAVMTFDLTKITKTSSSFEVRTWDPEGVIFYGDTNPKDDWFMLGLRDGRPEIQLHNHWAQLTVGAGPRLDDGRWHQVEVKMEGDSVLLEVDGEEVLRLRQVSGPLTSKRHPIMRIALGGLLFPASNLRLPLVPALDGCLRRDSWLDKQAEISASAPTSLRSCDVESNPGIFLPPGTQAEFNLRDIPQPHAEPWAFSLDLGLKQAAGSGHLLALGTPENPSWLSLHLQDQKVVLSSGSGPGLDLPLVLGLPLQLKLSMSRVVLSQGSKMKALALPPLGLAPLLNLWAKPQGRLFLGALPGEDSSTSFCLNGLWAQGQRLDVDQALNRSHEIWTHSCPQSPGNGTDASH
The settings on record: cited from earlier work.

The next assay concerns the target T2, progesterone receptors (Homo sapiens, UniProt P06401).
T2 sequence (P06401 1-933): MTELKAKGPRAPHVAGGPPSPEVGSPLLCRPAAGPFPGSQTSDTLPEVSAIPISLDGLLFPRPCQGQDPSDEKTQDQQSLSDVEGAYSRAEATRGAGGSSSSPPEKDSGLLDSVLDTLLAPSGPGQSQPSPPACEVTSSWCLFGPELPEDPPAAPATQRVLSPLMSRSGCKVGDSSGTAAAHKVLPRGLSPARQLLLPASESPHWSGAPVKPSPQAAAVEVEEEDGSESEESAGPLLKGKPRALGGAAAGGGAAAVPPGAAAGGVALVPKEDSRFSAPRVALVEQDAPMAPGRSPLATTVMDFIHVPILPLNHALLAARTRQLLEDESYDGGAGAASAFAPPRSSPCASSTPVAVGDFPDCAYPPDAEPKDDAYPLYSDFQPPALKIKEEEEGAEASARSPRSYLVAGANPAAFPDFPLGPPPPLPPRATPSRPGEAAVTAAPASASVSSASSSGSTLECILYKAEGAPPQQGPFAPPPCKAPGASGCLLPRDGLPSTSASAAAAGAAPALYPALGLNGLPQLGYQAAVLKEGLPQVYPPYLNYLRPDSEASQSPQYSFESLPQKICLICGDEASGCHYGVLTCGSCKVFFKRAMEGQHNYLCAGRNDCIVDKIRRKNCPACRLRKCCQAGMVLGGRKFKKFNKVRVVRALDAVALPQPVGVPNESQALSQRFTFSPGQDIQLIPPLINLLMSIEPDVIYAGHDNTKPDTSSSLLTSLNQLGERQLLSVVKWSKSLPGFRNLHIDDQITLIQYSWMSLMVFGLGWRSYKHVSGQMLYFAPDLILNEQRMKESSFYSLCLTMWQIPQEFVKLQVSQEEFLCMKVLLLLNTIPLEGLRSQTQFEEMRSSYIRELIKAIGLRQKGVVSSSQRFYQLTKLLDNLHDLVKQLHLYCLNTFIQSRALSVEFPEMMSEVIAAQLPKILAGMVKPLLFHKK
The note with it: cited from earlier work.

The test system of assay [2] is non-pregnant, oophorectomized ewes. As to the kind of experiment: Uterine blood flow, MAP and heart rate during bolus vs continuous estradiol, first phase. It counts as in vivo, sheep. How it is done:
In the study, fifteen non-pregnant, oophorectomized ewes were implanted with doppler flow probes (Transonic System, Ithaca, N.Y.) on the uterine artery and indwelling catheters were placed in the femoral artery and vein for mean arterial pressure (MAP) measurements and estrogen administration respectively. All animals were oophorectomized. MAP, heart rate (HR) and uterine blood flow (UBF) were recorded for 30 minutes daily for 14 days after at least 60 minutes of adaptation in the recording room. A baseline for each parameter of each sheep was established by averaging values obtained from day 8 through 14 after the last surgery. On day 14, sheep were divided randomly into three groups consisting of 5 animals each. […] The third group (Control) served as a vehicle control. Treatment groups received estrogen from day 15 through 28 and parameters were recorded daily throughout this period. […] It seems that none of the outcome parameters achieved a steady state during the study period.

Assay [3] shares this test system. As to the kind of experiment: Restoration of the uterine blood flow response after continuous infusion, second phase. In kind it is in vivo, sheep. The settings on record: after continuous infusion 220 μg day 15-28. How it is done:
In the second phase of the study an ultra-low dose of estrogen (0.01 μg/Kg) was administered to try to restore the response, which was most diminished in the first phase of the study by continuous infusion. The second phase of the study involved continuous infusion of 220 μg of estradiol from day 15 to 28 in another 15 sheep followed by randomization into 3 groups (See FIG. 1). […] UBF was measured throughout the study.

The test system of a further assay is estrogen receptor (ER). The note with it: ovariectomized non-pregnant sheep, myometrium and endometrium; cited from earlier work.
The mark [4] stands for this setting: continuous iv infusion 220 μg daily.

For the molecule `C#C[C@]1(OC(C)=O)CC[C@H]2[C@@H]3CCC4=CC(=NO)CC[C@@H]4[C@H]3CC[C@@]21CC` (mixture of isomers) [norgestimate], the “affinity for SHBG” value in assay [1] is listed as “lack of affinity”. Besides, at progesterone receptors, the “binding to progesterone receptors” value is “bind to progesterone receptors”.

Turning to `C[C@]12CC[C@@H]3c4ccc(O)cc4CC[C@H]3[C@@H]1CC[C@@H]2O` [17β-estradiol], in assay [2] (setting [4]), the “HR on the first day” value is “increased significantly”, the “HR on the second day” value was “dropped to baseline levels”, the “MAP decrease in the first two days” value came to 8.6±4% and the “increase in UBF at two days of treatment” value came to 1854.2±527.9%. The “UBF for the next 12 days of the study” value in assay [2] (continuous iv infusion 220 μg daily, after day 2 of treatment) is on record as “returned almost to baseline levels”. In assay [2] (continuous iv infusion 220 μg daily, after the first two days), the “MAP during the rest of the study” value is on record as “gradually increased to baseline levels”. For the same molecule, in assay [2] (daily single iv bolus 10 μg/kg), the “UBF after 24 hours (before the next bolus)” value is “returned almost to baseline levels”, the “daily intermittent increase in HR” value was 15-20% and the “effect on MAP (mean arterial pressure)” value is listed as “did not affect MAP”. Besides, the “HR decrease to levels below the baseline after 24 hours” value in assay [2] (daily single iv bolus 10 μg/kg, 24 hours after bolus) is reported as 8-10%. Also, the “increase in UBF (uterine blood flow), start of gradual increase” value in assay [2] (daily single iv bolus 10 μg/kg, start of the gradual increase in the first 4 days, vs baseline) amounted to 489±206.5%. Moreover, the “UBF response to standard bolus doses after 2 days of ultra-low boluses” value in assay [3] (0.01 μg/Kg bolus 2 days, then standard daily bolus (printed 1 μg/Kg) for 3 days (FIG. 4)) was “complete response”. For the same molecule, the “UBF response to standard bolus doses after 2 days of standard boluses” value in assay [3] (10 μg/Kg bolus 2 days, then 10 μg/Kg for 3 more days (FIG. 3)) is “no response at all”. In addition, in assay [3] (saline 2 days, then 10 μg/Kg bolus daily for 3 days (FIG. 2)), the “UBF response to standard bolus doses after 2 days of saline boluses” value is reported as “partial response”. Moreover, in the assay with estrogen receptor (ER), the “effect on ER expression at physiologic concentrations” value is on record as “promoted ER expression” and the “effect on ER expression at supra-physiologic doses” value is “inhibited ER expression”.

Regarding `C#C[C@]1(O)CC[C@H]2[C@@H]3CCC4=CCCC[C@@H]4[C@H]3C(=C)C[C@@]21CC` [desogestrel, 13-ethyl-11-methylene-18,19-dinor-17 alpha-pregn-4-en-20-yn-17-ol], the “affinity for SHBG” value in assay [1] was “lack of affinity”. In addition, the “binding to progesterone receptors” value on progesterone receptors is “bind to progesterone receptors”.
